Test results taken from paper PMC9127750, “Structure-based design of CDC42 effector interaction inhibitors for the treatment of cancer” (Cell reports, 2022).

Tested on: WM3248 melanoma cells, 486 antibodies
Assay: Reverse phase protein arrays (RPPA);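 as to CA9.R.C RPPA level: ratio of treated to vehicle (0 µM) normalized linear protein signal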;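 as to RPPA ACC1.R.C: ratio of treated to vehicle (0 µM) normalized linear protein signal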;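 as to RPPA ASNS.R.V: ratio of treated to vehicle (0 µM) normalized linear protein signal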;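 as to RPPA Akt1.R.V: ratio of treated to vehicle (0 µM) normalized linear protein signal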;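 as to RPPA Ambra1 pS52.R.C: ratio of treated to vehicle (0 µM) normalized linear protein signal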;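 as to RPPA Atg5.R.C: ratio of treated to vehicle (0 µM) normalized linear protein signal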;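 as to RPPA Bim.R.V: ratio of treated to vehicle (0 µM) normalized linear protein signal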
Format: cell-based, Human
Conditions: 5 uM
Text: Pellets were snap frozen in liquid nitrogen and shipped to MD Anderson Cancer Center core RPPA facility for RPPA analysis (Table S5). Three biological replicates for each sample were generated.
Nomenclatures on the RPPA heatmaps: name_of_antibody.species_of_antibody.status_of_antibody. V - antibody validated; C - validation of antibody in progress; Q - antibody nonspecific; E – under evaluation; antibodies raised in M - mouse, G - goat, R - rabbit, or T - rat.

## CN(C)c1cccc(Nc2cc(-c3ccccc3)nc(C3CCNCC3)n2)c1 [ARN22089, N1,N1-dimethyl-N3-(6-phenyl-2-(piperidin-4-yl)pyrimidin-4-yl)benzene-1,3-diamine]
5W3
  RPPA Akt_pT308.R.V: 0.946
  RPPA Ambra1_pS52.R.C: 0.917
  RPPA Annexin.I.M.V: 0.971
  RPPA Annexin.VII.M.V: 1.007
  RPPA Atg3.R.V: 1.133
  RPPA Atg4B.R.C: 1.148
  RPPA Atg5.R.C: 0.936
  RPPA Atg7.R.V: 1.164
  RPPA Aurora.A.R.C: 1.000
  RPPA Aurora.ABC_pT288_pT232_pT198.R.C: 0.878
  RPPA Aurora.B.R.V: 0.688
  RPPA Axl.R.V: 1.276
  RPPA B7.H4.R.C: 1.076
  RPPA B.Raf_pS445.R.V: 1.159
  RPPA BAP1.M.V: 0.823
  RPPA BCL2A1.R.V: 0.750
  RPPA BMK1.Erk5_pT218_Y220.R.V: 1.014
  RPPA BRCA1.M.C: 0.946
  RPPA BRD4.R.V: 1.138
  RPPA Bad_pS112.R.V: 1.056
  RPPA Bak.R.C: 1.134
  RPPA Bax.R.V: 0.916
  RPPA Bcl2.R.C: 0.798
  RPPA Bcl.xL.R.V: 0.681
  RPPA Beclin.R.C: 0.789
  RPPA Bid.R.C: 1.142
  RPPA Bim.R.V: 0.991
  RPPA X4E.BP1.R.V: 1.157
  RPPA X4E.BP1_pT37_T46.R.V: 0.968
  RPPA X14.3.3.zeta.R.V: 0.946
  RPPA X14.3.3βR.V: 1.033
  RPPA X14.3.3εM.C: 0.879
  RPPA X53BP1.R.V: 0.922
  RPPA b.Catenin.R.V: 0.837
  RPPA b.Catenin_pT41_S45.R.V: 0.998
  RPPA c.Abl.R.V: 1.059
  RPPA c.Abl_pY412.R.C: 1.150
  RPPA c.IAP2.R.C: 1.026
Average
  C.Raf.R.C RPPA level: 1.065
  C.Raf_pS338.R.V RPPA level: 1.113
  CA9.R.C RPPA level: 0.982
  CD2.M.C RPPA level: 1.031
  CD4.R.V RPPA level: 1.062
  CD5.M.C RPPA level: 1.017
  CD20.R.C RPPA level: 0.788
  CD26.R.V RPPA level: 0.939
  CD29.M.V RPPA level: 1.028
  CD31.M.V RPPA level: 1.028
  CD44.R.C RPPA level: 0.921
  CD45.M.V RPPA level: 1.027
  CD49b.M.V RPPA level: 0.960
  CD68.M.C RPPA level: 1.012
  CD74.M.V RPPA level: 0.998
  CD134.R.V RPPA level: 1.020
  CD171.M.V RPPA level: 0.844
  CDK1_pT14.R.C RPPA level: 1.060
  CDK9.R.V RPPA level: 0.980
  CDT1.R.V RPPA level: 1.028
  CENP.A.R.V RPPA level: 0.953
  CHD1L.R.V RPPA level: 1.018
  CIITA.R.C RPPA level: 0.895
  COG3.R.V RPPA level: 1.097
  CRABP1.R.C RPPA level: 1.004
  CRABP2.R.V RPPA level: 1.035
  CREB_pS133.R.C RPPA level: 1.124
  CSK.R.C RPPA level: 0.918
  Calnexin.R.V RPPA level: 0.992
  Caspase.7.cleaved..R.C RPPA level: 1.029
  Caspase.8.M.Q RPPA level: 0.956
  Caspase.8.cleaved.R.C RPPA level: 1.054
  Cdc6.R.V RPPA level: 0.980
  Cdc42.R.C RPPA level: 1.028
  Chk1_pS296.R.V RPPA level: 1.083
  Chk1_pS345.R.C RPPA level: 0.981
  Chk2.M.V RPPA level: 0.925
  Chk2_pT68.R.C RPPA level: 1.151
  Claudin.7.R.V RPPA level: 0.907
  Collagen.VI.R.V RPPA level: 1.059
  Complex.II.Subunit.M.V RPPA level: 0.933
  Connexin.43.R.C RPPA level: 1.140
  Coup.TFII.R.C RPPA level: 1.033
  Cox2.R.C RPPA level: 1.057
  Cox.IV.R.V RPPA level: 1.028
  Creb.R.C RPPA level: 1.080
  CtIP.R.V RPPA level: 0.961
  Cyclin.B1.R.V RPPA level: 1.030
  Cyclin.D1.R.C RPPA level: 1.001
  Cyclin.D3.M.V RPPA level: 1.046
  Cyclin.E1.R.V RPPA level: 0.995
  Cyclophilin.F.M.V RPPA level: 0.908
  D.a.Tubulin.R.V RPPA level: 1.114
  DAPK1_pS308.M.C RPPA level: 0.822
  DDB.1.R.V RPPA level: 1.124
  DDR1.R.V RPPA level: 0.952
  DDR1_pY513.R.C RPPA level: 1.021
  DJ1.R.V RPPA level: 1.059
  DM.K9.Histone.H3.M.V RPPA level: 0.994
  DNA.Ligase.IV.R.C RPPA level: 1.104
  DNA_POLG.R.V RPPA level: 0.927
  RPPA A.Raf.R.V: 1.059
  RPPA A.Raf_pS299.R.C: 0.992
  RPPA ACC1.R.C: 1.065
  RPPA ACC_pS79.R.V: 0.961
  RPPA ACLY_pS455.R.V: 0.986
  RPPA ACSL1.R.V: 0.842
  RPPA ACVRL1.R.C: 0.970
  RPPA ADAR1.M.V: 1.014
  RPPA ALKBH5.R.V: 0.919
  RPPA AMPK.a2_pS345.R.V: 1.081
  RPPA AMPKa.R.C: 1.048
  RPPA AMPKa_pT172.R.C: 1.331
  RPPA AR.R.V: 1.032
  RPPA ARID1A.R.C: 1.009
  RPPA ASNS.R.V: 1.062
  RPPA ATM.R.V: 1.153
  RPPA ATM_pS1981.R.V: 0.964
  RPPA ATP5A.M.C: 0.801
  RPPA ATP5H.R.V: 0.961
  RPPA ATR.R.V: 0.966
  RPPA ATRX.R.C: 1.030
  RPPA ATR_pS428.R.C: 1.061
  RPPA AceCS1.R.V: 0.899
  RPPA Akt1.R.V: 0.928
  RPPA Akt1_pS473.R.V: 1.048
  RPPA Akt2.R.V: 1.002
  RPPA Akt2_pS474.R.C: 1.185
  RPPA Akt.R.V: 1.002
  RPPA Akt_pS473.R.V: 1.132
  RPPA Akt_pT308.R.V: 0.940
  RPPA Ambra1_pS52.R.C: 0.946
  RPPA Annexin.I.M.V: 1.026
  RPPA Annexin.VII.M.V: 0.993
  RPPA Atg3.R.V: 1.035
  RPPA Atg5.R.C: 0.970
  RPPA Atg7.R.V: 0.970
  RPPA Aurora.A.R.C: 0.940
  RPPA Aurora.ABC_pT288_pT232_pT198.R.C: 0.876
  RPPA Aurora.B.R.V: 0.890
  RPPA Axl.R.V: 1.076
  RPPA B7.H3.R.C: 1.022
  RPPA B7.H4.R.C: 1.046
  RPPA B.Raf.R.C: 1.049
  RPPA BAP1.M.V: 0.921
  RPPA BCL2A1.R.V: 0.906
  RPPA BMK1.Erk5_pT218_Y220.R.V: 0.997
  RPPA Bad_pS112.R.V: 1.055
  RPPA Bax.R.V: 0.956
  RPPA Bcl2.R.C: 0.897
  RPPA Bcl.xL.R.V: 0.932
  RPPA Beclin.R.C: 0.921
  RPPA BiP.GRP78.M.C: 0.957
  RPPA Bid.R.C: 1.077
  RPPA Bim.R.V: 0.984
  RPPA DNMT1.R.V: 0.995
  RPPA DRP1.R.V: 1.010
  RPPA DUSP4.R.V: 1.114
  RPPA DYRK1B.R.C: 1.013
  RPPA Dvl3.R.V: 1.014
  RPPA E2F1.R.V: 0.961
  RPPA E.Cadherin.R.V: 0.957
  RPPA EGFR.R.V: 0.980
  RPPA EGFR_pY1068.R.C: 0.993
  RPPA EGFR_pY1173.R.V: 1.046
